# Patent US8648116B2, “Derivatives of N-(arylamino) sulfonamides including polymorphs as inhibitors of MEK as well as compositions, methods of use and methods for preparing the same” (Ardea Biosciences, Inc., priority 2005, dated 2014)
# Like-named read-outs stand apart in the source and are kept apart here. Marks after values point to notes of the source that are not given here.
# Key:
# A431 epidermoid cells = experiment: Anchorage-independent growth inhibition (MTS, 7 days, non-binding plates); type: cell-based; conditions: Homo sapiens, A-431, 168 h, BRAF Normal, read-out: Anchorage-Independent GI50 (nM ± sd)
# Colo205 tumor cells = experiment: ED50 in Colo205 xenografts (Example 94D); type: in vivo, nu/nu mice
# Source text: Male nu/nu mice were implanted with Colo205 tumor cells. After 10 days animals were randomized by tumor size (range 126-256 mm^3) and treated with paclitaxel (IV, QODx5), vehicle or Compound A (PO, QDx14).
# pERK in Colo205 tumors = experiment: MEK inhibition (pERK, Western blot) against plasma concentration, tumor; type: in vivo, nu/nu mice
# Protocol: (§1) Human tumors were implanted in nu/nu mice. Compound A was administered orally for 14 days once tumors were approximately 100 mm^3 in size. Tumor growth inhibition (TGI) was determined after 14 days of treatment as the reduction in the size of tumors in treated groups versus vehicle controls. The time to endpoint (TTE) was calculated as the time for the tumor to reach the specified endpoint volume or the last day of the study, whichever came first. Treatment outcome was determined from percent tumor growth delay (% TGD), defined as the percent increase in median TTE of treated versus vehicle-treated control mice. Animals were also monitored for regression responses. Levels of pERK in tumors and brain were determined by Western blots and correlated with plasma levels of Compound A for the pharmacodynamic/pharmacokinetic study. A number of tumor models were evaluated with different doses and dosing regimens. […] The effect of different dosing regimens was evaluated in A375 xenografts.
# (§2) Female nu/nu mice implanted with Colo205 tumor cells were given a single dose of vehicle or Compound A at 2.5, 5, 10, or 25 mg/kg. Compound levels were determined in plasma samples and pERK levels were determined in tumor and brain samples collected at 2, 6, 12, and 24 hr post-dose. […]
# pERK in brain = experiment: MEK inhibition (pERK, Western blot) against plasma concentration, brain; type: in vivo, nu/nu mice
# Protocol: as §1, §2
# [1] = Concentration-time profiles after a single dose of capsules; design: species or system human cancer patients; conditions: human, in vivo, oral, capsules of example 95A, Day 1; for AUC(0-t): read-out: AUC0-12hr
# Protocol: Human cancer patients were administered a single dose of the 1 mg or 10 mg capsule composition described above in example 95A. For a 2 mg dose, patients were given 2×1 mg capsules; for a 4 mg dose, patients were given 4×1 mg capsules; for a 6 mg dose, patients were given 6×1 mg capsules; for a 10 mg dose, patients were given 1×10 mg capsule; for a 20 mg dose, patients were given 2×10 mg capsules.
# The concentration-time profiles were monitored and are shown in FIG. 4 and in the table below: […]
# [2] = tested on: COLO 205 human colon carcinoma xenografts; experiment: Activity against subcutaneous COLO 205 xenografts (Example 118)
# Protocol: Dosing solutions of Compound A were prepared fresh daily by dissolving the required amount of compound in 100% Cremophor EL, and then diluting ten-fold with normal saline. Final dosing solution concentrations were 2.5, 5, 10, or 20 mg/mL, in order to provide respective doses of 25, 50, 100 or 200 mg/kg in a dosing volume of 10 mL/kg. Paclitaxel (Natural Pharmaceuticals, Inc.) was prepared fresh on each day of dosing in a vehicle consisting of 5% ethanol and 5% Cremophor EL in 90% D5W (5% EC vehicle).
# Group 1 received the formulation vehicle (10% Cremophor EL in saline), and served as the tumor growth control group. Group 2 received the reference drug paclitaxel administered on its optimal schedule in nude mice (30 mg/kg i.v. qod×5). […] All doses were scaled to the weight of the animal (0.2 mL per 20 grams body weight).
# Tumors were measured twice each week using calipers. […] Therefore endpoint tumor size of 800 mm^3 was used for analysis of tumor growth delay (TGD).
# [formula] where b is the intercept and m is the slope of the line obtained by linear regression of a log-transformed tumor growth data set.
# SK Mel28 melanoma cells = experiment: Anchorage-dependent growth inhibition (ATP content, 48 hr); type: cell-based, human; conditions: SK Mel 28, separate study
# [3] = tested on: select human cancer cells; experiment: Growth inhibition in proliferation assays, summary over cell lines; type: cell-based
# [4] = human, in vivo
# [5] = Pharmacokinetics in cancer patients following multiple doses; conditions: 6 mg
# [6] = Pharmacokinetics in healthy volunteers following multiple doses; conditions: 20 mg
# [7] = Group 3, 50 mg/kg po qd × 14 per the 39th table (25 mg/kg p.o. qd×14), n=9
# [8] = Group 4, 25 mg/kg po bid × 14 first day 1 dose per the 39th table (50 mg/kg p.o. qd×14), n=9
# [9] = Group 5, 25 mg/kg po qd × 14 per the 39th table (100 mg/kg p.o. qd×14), n=9
# [10] = Group 6, 12.5 mg/kg po bid × 14 first day 1 dose per the 39th table (200 mg/kg p.o., discontinued after six days), n=9
smiles,measurement,setting,value
COc1cc(F)c(F)c(Nc2ccc(I)cc2F)c1NS(=O)(=O)C1(C[C@H](O)CO)CC1 [Compound A],GI50,A431 epidermoid cells,65 ± 19 nM
same,% TGI,Colo205 tumor cells; Compound A 2.5 mg/kg PO QDx14,47* %
same,Day 15 Tumor Volume,Colo205 tumor cells; Compound A 2.5 mg/kg PO QDx14,1187 ± 127 mm^3
same,% TGI,Colo205 tumor cells; Compound A 5 mg/kg PO QDx14,48* %
same,Day 15 Tumor Volume,Colo205 tumor cells; Compound A 5 mg/kg PO QDx14,1175 ± 104 mm^3
same,% TGI,Colo205 tumor cells; Compound A 10 mg/kg PO QDx14,55* %
same,Day 15 Tumor Volume,Colo205 tumor cells; Compound A 10 mg/kg PO QDx14,1045 ± 160 mm^3
same,% TGI,Colo205 tumor cells; Compound A 25 mg/kg PO QDx14,70* %
same,Day 15 Tumor Volume,Colo205 tumor cells; Compound A 25 mg/kg PO QDx14,762 ± 81 mm^3
same,pERK formation in tumors,"pERK in Colo205 tumors; Colo205 xenografts, pharmacodynamic/pharmacokinetic study",inhibition of pERK formation
same,EC50,"pERK in Colo205 tumors; Mus musculus, COLO 205, plasma concentration, Colo205-bearing nu/nu mice, single dose 2.5-25 mg/kg, non-linear regression",73 nM
same,pERK formation in brain,"pERK in brain; Colo205 xenograft mice, pharmacodynamic/pharmacokinetic study",minimal inhibition
same,EC50,"pERK in brain; Mus musculus, plasma concentration, Colo205-bearing nu/nu mice, single dose 2.5-25 mg/kg",> 5000 nM
same,Cmax,"[1]; 2 mg, 2 mg dose",0.111 ng/mL
same,Tmax,"[1]; 2 mg, 2 mg dose",2 h
same,Cmax,"[1]; 4 mg, 4 mg dose",0.292 ng/mL
same,AUC(0-t),[1]; 2 mg dose,0.7 ng·h/mL
same,AUC(0-t),[1]; 4 mg dose,2.26 ng·h/mL
same,TGD,[2]; 25 mg/kg p.o. qd×14,3%
same,TGD,[2]; 50 mg/kg p.o. qd×14,46%
same,TGD,[2]; 100 mg/kg p.o. qd×14,maximum TGD possible
same,relation to the MTD,[2]; 200 mg/kg p.o. once daily,above the MTD
same,TR deaths,"[2]; 200 mg/kg p.o., dosing stopped after Day 6",3/9
same,Median TTE,"[2]; Group 3, 25 mg/kg p.o. qd×14",47.9 days
same,% TGD,[2]; [7],17%
same,MTV (n) Day 74,[2]; [7],0 (3)
same,Median TTE,[2]; [7],47.9 days
same,No of CR,[2]; [7],0
same,No of NTR (non-treatment-related deaths),[2]; [7],2
same,No of PR,[2]; [7],1
same,No of TFS,[2]; [7],0
same,No of TR (treatment-related deaths),[2]; [7],2
same,"SS (statistical significance, logrank vs Group 1)",[2]; [7],ns
same,T − C,[2]; [7],6.9 days
same,% TGD,[2]; [8],44%
same,MTV (n) Day 74,[2]; [8],195 (1)
same,Median TTE,[2]; [8],59.1 days
same,No of CR,[2]; [8],0
same,No of NTR (non-treatment-related deaths),[2]; [8],0
same,No of PR,[2]; [8],4
same,No of TFS,[2]; [8],0
same,No of TR (treatment-related deaths),[2]; [8],0
same,"SS (statistical significance, logrank vs Group 1)",[2]; [8],ns
same,T − C,[2]; [8],18.1 days
same,Median TTE,"[2]; Group 4, 50 mg/kg p.o. qd×14",59.1 days
same,% TGD,[2]; [9],80%
same,MTV (n) Day 74,[2]; [9],320 (5)
same,Median TTE,[2]; [9],74.0 days
same,No of CR,[2]; [9],0
same,No of NTR (non-treatment-related deaths),[2]; [9],0
same,No of PR,[2]; [9],4
same,No of TFS,[2]; [9],0
same,No of TR (treatment-related deaths),[2]; [9],1
same,"SS (statistical significance, logrank vs Group 1)",[2]; [9],ns
same,T − C,[2]; [9],33.0 days
same,Median TTE,"[2]; Group 5, 100 mg/kg p.o. qd×14",74.0 days
same,% TGD,[2]; [10],41%
same,MTV (n) Day 74,[2]; [10],0 (3)
same,Median TTE,[2]; [10],57.8 days
same,No of CR,[2]; [10],3
same,No of NTR (non-treatment-related deaths),[2]; [10],2
same,No of PR,[2]; [10],1
same,No of TFS,[2]; [10],0
same,No of TR (treatment-related deaths),[2]; [10],2
same,T − C,[2]; [10],16.8 days
COc1cc(F)c(F)c(Nc2ccc(I)cc2F)c1NS(=O)(=O)C1(C[C@H](O)CO)CC1,GI50,SK Mel28 melanoma cells,105 nM
same,GI50,"[3]; mean over A375, Colo205, HT29 and A431, 48 hr, ATP content, read-out: growth inhibition, mean potency (GI50)",79 nM
same,GI50,"[3]; select human cancer cells, range, read-out: GI50 values, anchorage dependent proliferation assays",70 to 89 nM
same,GI50,"[3]; select human cancer cells, read-out: GI50, anchorage dependent proliferation assays",51 nM
same,GI50,"[3]; select human cancer cells, read-out: GI50, anchorage independent proliferation assays",22 nM
same,half-lives,[4],13 to 15 h
same,Rac AUCτ (accumulation index),[5],2.07
same,Rac AUCτ (accumulation index),[6],1.24
